Measurements as given in patent EP4567032A1, “KIF18A INHIBITOR COMPOUND, AND PHARMACEUTICAL COMPOSITION AND PREPARATION METHOD THEREFOR AND USE THEREOF” (Changchun Genescience Pharmaceutical Co., Ltd., priority 2022, dated 2024).

What follows are molecules tested on OVCAR-3 cells (assay: imaging-based nuclear count analysis (NCA) in OVCAR-3 cells). Conditions: Homo sapiens, 96 h, cultured 4 days, Hoechst 33342 nuclear count, 0.1% DMSO.
Assay type: cell-based
Protocol: Test name: imaging-based nuclear count analysis (NCA) in OVCAR-3 cells
• a) When the cell confluence reached 80%-90%, the cells were treated. • b) The cells were resuspended in a medium and then counted and diluted at a desired density. • c) A cell suspension containing appropriate cells was added to the 384-well plate at 30 µL/well: 600 cells/well.
• a) 30 µL of 8% fixative (final concentration 4%) was added and the plate was incubated at room temperature for 30 min. • b) The plate was centrifuged at 1000RPM for 30s. • c) The plate was washed twice with 60 µl/well PBS. • d) After immobilization, the cells were permeabilized and stained in 60 µL of a wash buffer containing 2 µg/mL Hoechst 33342 DNA dye (1% BSA, 0.2% Triton X-100, 1X PBS). • e) The plate was sealed and incubated at room temperature in the dark for 1 h. • f) It was washed with PBS 3 times. • g) 50µLPBS/well was added and the plate was scanned using HCS. • h) Data acquisition and detection
High-reading control wells: cells + 30 nL DMSO; low-reading control wells: 10 µM AM-5308.
IC50 (nM) was calculated using GraphPad Prism 8 software and the effect-dose curves of the compound were plotted. Table 1 Bioactivity data of the compound of the present application

SMILES | IC50 [nM]
O=C(Nc1cccc2ccccc12)c1ccc(NS(=O)(=O)CCO)cc1N1CCC2(CC1)CC2 [Compound 2, 2-{6-azaspiro[2.5]octan-6-yl}-4-(2-hydroxyethanesulfonylamino) -N-(naphthalen-1-yl)benzamide] | 568
Cc1ccc2c(NC(=O)c3ccc(NS(=O)(=O)CCO)cc3N3CCC4(CC3)CC4)cccc2c1 [Compound 4, 2-{6-azaspiro[2.5]octan-6-yl}-4-(2-hydroxyethanesulfonylamino) -N-(6-methylnaphthalen-1-yl)benzamide] | 478
O=C(Nc1cccc2cc(Cl)ccc12)c1ccc(NS(=O)(=O)CCO)cc1N1CCC2(CC1)CC2 [Compound 5, {6-azaspiro[2.5]octan-6-yl}-N-(6-chloronaphthalen-1-yl)-4-(2-hydroxyethanesulfonylamino) benzamide] | 369
O=C(Nc1cccc2ccc(F)cc12)c1ccc(NS(=O)(=O)CCO)cc1N1CCC2(CC1)CC2 [Compound 6, 2-{6-azaspiro[2.5]octan-6-yl}-N-(7-fluoronaphthalen-1-yl)-4-(2-hydroxyethanesulfonylamino) benzamide] | 976
O=C(Nc1cccc2cc(C(F)(F)F)ccc12)c1ccc(NS(=O)(=O)CCO)cc1N1CCC2(CC1)CC2 [Compound 7, 2-{6-azaspiro[2.5]octan-6-yl}-4-(2-hydroxyethanesulfonylamino) -N-(6-(trifluoromethyl)naphthalen-1-yl)benzamide] | 458
O=C(Nc1cccc2c1CCC1(CCCC1)C2)c1ccc(NS(=O)(=O)CCO)cc1N1CCC2(CC1)CC2 [Compound 51, 2-{6-azaspiro[2.5]octan-6-yl}-N-{3',4'-dihydro-1'H-spiro[cyclopentane-1,2'-naphthalen]-5'-yl}-4-(2-hydroxyethanesulfonylamino)benzamide] | 258
O=C(Nc1cccc2c1CCC1(CC1)C2)c1ccc(NS(=O)(=O)CCO)cc1N1CCC2(CC1)CC2 [Compound 56, 2-{6-azaspiro[2.5]octan-6-yl}-N-{3',4'-dihydro-1'H-spiro[cyclopropane-1,2'-naphthalen]-5'-yl}-4-(2-hydroxyethanesulfonylamino)benzamide] | 73.1
Cc1cc(NC(=O)c2ccc(NS(=O)(=O)CCO)cc2N2CCC3(CC2)CC3)nc2c1nc1n2CC(F)(F)CC1 [Compound 64, N-(8,8-difluoro-4-methyl-pyrido[2,3-d]imidazo[1,2-a]piperidin-2-yl)-4-(2-hydroxyethanesulfonylamino)-2-(6-azaspiro[2.5]octan-6-yl)benzamide] | 763
O=C(Nc1cccc2c1nc1n2CCC1(F)F)c1ccc(NS(=O)(=O)CCO)cc1C1=CCC2(CC1)CC2 [Compound 90, N-(3,3-difluoro-2,3-dihydro-1H-benzo[d]pyrrolo[1,2-a]imidazol-5-yl)-4-(2-hydroxyethanesulfonylamino)-2-(spiro[2.5]oct-5-en-6-yl)benzamide] | 71.2
COc1ccc2c(NC(=O)c3ccc(NS(=O)(=O)CCO)cc3N3CCC4(CC3)CC4)ccnc2c1 [Compound 95] | 98.9
Cc1cc(NC(=O)c2ccc(NS(=O)(=O)CCO)cc2N2CCC3(CC2)CC3)c2nc3n(c2c1)[C@H]1CC[C@@H]3C1 [Compound 99, 4-(2-hydroxyethanesulfonylamino)-N-((1S,4R)-8-methyl-1,2,3,4-tetrahydro-1,4-methylenebenzo[4,5]imidazo[1,2-a]pyridin-6-yl)-2-(6-azaspiro[2.5]octan-6-yl)benzamide] | 109
CC1CCn2c1nc1c(NC(=O)c3ccc(NS(=O)(=O)CCO)cc3N3CCC4(CC3)CC4)cccc12 (centres unmarked) [Compound 106, 4-(2-hydroxyethanesulfonylamino) -N-(3-methyl-2,3-dihydro-1H-benzo[d]pyrrolo[1,2-a]imidazol-5-yl)-2-(6-azaspiro[2.5]octan-6-yl)benzamide] | 125
O=C(Nc1cccc2c1nc1n2CCCCC1)c1ccc(NS(=O)(=O)CCO)cc1C1=CCC2(CC1)CC2 [Compound 108, 4-(2-hydroxyethanesulfonylamino) -2-(spiro[2.5]oct-5-en-6-yl)-N-(7,8,9,10-tetrahydro-6H-benzo[4,5]imidazo[1,2-a]azepin-4-yl)benzamide] | 183
O=C(Nc1cccc2c1oc1ccccc12)c1ccc(NS(=O)(=O)CCO)cc1N1CCC2(CC1)CC2 [Compound 111, N-(dibenzo[b,d]furan-4-yl)-4-(2-hydroxyethanesulfonylamino)-2-(6-azaspiro[2.5]octan-6-yl)benzamide] | 161
O=C(Nc1ccnc2cc(C3CC3)ccc12)c1ccc(NS(=O)(=O)CCO)cc1N1CCC2(CC1)CC2 [Compound 112, 2-{6-azaspiro[2.5]octan-6-yl}-N-(7-cyclopropylquinolin-4-yl)-4-(2-hydroxyethylsulfonylamino)benzamide] | 117
O=C(Nc1cc(F)cc2c1nc1n2[C@H]2CC[C@@H]1C2)c1ccc(NS(=O)(=O)CCO)cc1N1CCC2(CC1)CC2 [Compound 113a, N-((1S,4R)-8-fluoro-1,2,3,4-tetrahydro-1,4-methylenebenzo[4,5]imidazo [1,2-a]pyridin-6-yl)4-(2-hydroxyethanesulfonylamino) -2-(6-azaspiro[2.5]octan-6-yl)benzamide] | 97.9

Same assay, conditions: cultured 4 days, Hoechst 33342 nuclear count, 0.1% DMSO

SMILES | IC50 [nM]
O=C(Nc1cccc2c1nc1n2C2CCC1CC2)c1ccc(NS(=O)(=O)CCO)cc1N1CCC2(CC1)CC2 [Compound 100, 4-(2-hydroxyethanesulfonylamino)-2-(6-azaspiro[2.5]octan-6-yl)-N-(1,2,3,4-tetrahydro-1,4-ethylbenzo[4,5]imidazo[1,2-a]pyridin-6-yl)benzamide] | 110
